# Test results taken from PubChem BioAssay (NCI).
# “And” between values parts separate entries of the source, which are not always exact repeats. Equal entries are not always repeated.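 Values below derive from 48-hour exposures of cells grown in 96-well plates, with endpoints linearly interpolated between the two concentrations bracketing the appropriate inhibition level. The concentration for 50% growth inhibition is given as GI50. TGI marks complete inhibition of growth.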 Where a SMILES comes first, the peptide text is derived from it. Bridges are numbered along the chain shown (N, C = ends). [ ]: non-standard residue; d: D form. ξ: configuration not given here. ξThr(3R) = C[C@@H](O)C(N)C(=O)O; S5 = C=CCCC[C@](C)(N)C(=O)O
# Legend:
# Test in all cases: inhibition of tumour cell growth, NCI panel, 48 h
# [1] = system: A549 NSCLC
# [2] = system: CAKI-1 renal
# [3] = system: HL-60(TB) leukemia
# [4] = system: HT29 colon
# [5] = system: MOLT-4 leukemia
# [6] = system: NCI-H23 lung
# [7] = system: NCI/ADR-RES ovarian
# [8] = system: PC-3 prostate
# [9] = system: SK-MEL-28 melanoma
# [10] = system: UACC-257 melanoma
SMILES,GI50 [1],TGI [1],GI50 [2],TGI [2],GI50 [3],TGI [3],GI50 [4],TGI [4],GI50 [5],TGI [5],GI50 [6],TGI [6],GI50 [7],TGI [7],GI50 [8],TGI [8],GI50 [9],TGI [9],GI50 [10],TGI [10]
CCN(CC)CCC(CNc1ccnc2cc(Cl)ccc12)c1ccccc1 (configuration not stated),11.6 µM,26.3 µM,3.52 µM,18.5 µM,4.22 µM,29.2 µM,0.493 µM,10.4 µM,4.66 µM,58.2 µM,11.5 µM,38.8 µM,9.92 µM,48.4 µM,13.9 µM,69.9 µM,1.92 µM,3.45 µM,1.86 µM,3.36 µM
NC(=O)CC1(O)C=C(Br)C(=O)C(Br)=C1,19 µM,37.8 µM,0.94 µM,2.96 µM,1.85 µM,4.64 µM,4.03 µM,19 µM,2.29 µM,5.35 µM,8.99 µM,24.6 µM,10.1 µM,> 94.4 µM,7.65 µM,24.9 µM,1.87 µM,3.7 µM,1.9 µM,4.06 µM
Nc1cc(C(F)(F)F)c(-c2cc(N3CCOCC3)nc(N3CCOCC3)n2)cn1,1.17 µM and 1.29 µM,7.06 µM and 4.99 µM,0.441 µM and 0.806 µM,4.05 µM and > 24.3 µM,0.615 µM and 0.455 µM,5.45 µM and 9.35 µM,0.547 µM and 0.531 µM,> 7.41 µM and 3.66 µM,0.883 µM and 0.814 µM,> 100 µM,1.17 µM and 1.28 µM,> 84.6 µM,0.753 µM and 0.856 µM,3.45 µM and > 21.5 µM,0.44 µM and 0.49 µM,> 9.49 µM and 6.09 µM,0.555 µM and 0.536 µM,5.14 µM and 4.38 µM,0.59 µM and 0.417 µM,> 7.31 µM and 4.25 µM
O=C(/C=C/C(Cl)(Cl)Cl)Nc1ccc(Cl)cc1,,8.98 µM,,2.02 µM,,2.03 µM,,4.03 µM,,3.28 µM,,11.3 µM,,14 µM,,26.5 µM,,35.1 µM,,35.7 µM
Cc1ccc(-c2nc3cc(Cl)c(Cl)cc3nc2C#N)cc1,> 100 µM,> 100 µM,> 100 µM,> 100 µM,> 100 µM,> 100 µM,> 100 µM,> 100 µM,> 100 µM,> 100 µM,> 100 µM,> 100 µM,81.2 µM,> 100 µM,> 100 µM,> 100 µM,> 100 µM,> 100 µM,> 100 µM,> 100 µM
CC(c1ccccc1)[C@@H](C(=O)Nc1ccc(I)cc1F)N1C(=O)N[C@H](c2ccc(OC[C@H](O)CO)cc2)C1=O (some centres not stated),> 14.3 µM,> 25 µM,16.2 µM,> 25 µM,0.313 µM,> 25 µM,0.0683 µM,> 25 µM,12.5 µM,> 25 µM,0.902 µM,> 25 µM,> 25 µM,> 25 µM,> 15.4 µM,> 25 µM,0.026 µM,> 25 µM,0.052 µM,0.892 µM
CC(=O)N[C@H](C(=O)N[C@@H](CCCNC(=N)N)C(=O)N[C@@H](CCCCN)C(=O)N[C@@H](CCCNC(=N)N)C(=O)NC(C(=O)N[C@@H](CC(C)C)C(=O)N[C@@H](CCCNC(=N)N)C(=O)N[C@@]1(C)CCC/C=C\CCC[C@@](C)(C(=O)N[C@@H](CCCNC(=N)N)C(=O)N[C@@H](CCC(=O)O)C(=O)N[C@@H](CC(C)C)C(=O)N[C@H](C(=O)N[C@@H](CCC(=O)O)C(N)=O)C(C)C)NC(=O)[C@H](CCC(N)=O)NC(=O)[C@H](CC(C)C)NC(=O)[C@H](CC(C)C)NC1=O)[C@@H](C)O)C(C)C (stereo partly drawn) (Ac-VRKR[ξThr(3R)]LR[S5]LLQ[S5]RELVE-NH2; staple (Z) 8-12),6.42 µM,14.3 µM,3.79 µM,10.4 µM,7.23 µM,19.2 µM,7.56 µM,16.4 µM,9.85 µM,22.9 µM,5.26 µM,13.3 µM,7.9 µM,16.7 µM,7.76 µM,15.3 µM,3.93 µM,11.3 µM,,
N#Cc1ccccc1C#C/C=C\C#CC#C/C=C\C#Cc1ccccc1C#N,11 µM,> 100 µM,20.1 µM,73.4 µM,4.12 µM,22.5 µM,3.39 µM,94.4 µM,15.6 µM,89.3 µM,3.14 µM,19.7 µM,18.5 µM,68.2 µM,19.6 µM,> 100 µM,10.6 µM,49.6 µM,52.7 µM,> 100 µM
COc1cc(/C=C/C(=O)N2CCC=CC2=O)cc(OC)c1OC,8.57 µM,22.8 µM,,,1.91 µM,5.28 µM,2.98 µM,9.08 µM,2.74 µM,9.48 µM,1.81 µM,4.03 µM,3.41 µM,47.9 µM,7.36 µM,28.5 µM,2.21 µM,5.53 µM,2.23 µM,5.37 µM
COc1ccccc1/C=C/C1=C(C)CCC(c2ccccc2OC)C1C (configuration not stated),0.223 µM,,0.157 µM,7.69 µM,0.262 µM,0.603 µM,0.167 µM,,,,0.188 µM,13.6 µM,0.105 µM,,0.392 µM,> 100 µM,0.24 µM,> 100 µM,,> 89.8 µM
O=CNc1ccc(S(=O)(=O)c2ccc(NC=O)cc2)cc1,,> 100 µM,,> 100 µM,,> 100 µM,,> 100 µM,,> 100 µM,,> 100 µM,,> 100 µM,,> 100 µM,,> 100 µM,,> 100 µM
COc1cccc2nc3ccccc3nc12,,> 100 µM,,> 100 µM,,> 100 µM,,> 100 µM,,> 100 µM,,> 100 µM,,> 100 µM,,> 100 µM,,> 100 µM,,> 100 µM
O=C(COc1ccc(OCC(=O)N2C(=O)CN(c3ccccc3)C2=S)cc1)N1C(=O)CN(c2ccccc2)C1=S,> 25 µM,> 100 µM,> 25 µM,> 100 µM,,> 100 µM,> 25 µM,> 100 µM,> 100 µM,> 100 µM,> 25 µM,> 100 µM,> 25 µM,> 100 µM,,> 100 µM,> 25 µM,> 100 µM,> 25 µM,> 100 µM
COC1=C(OC)C(=O)C(Sc2ccc3ccccc3c2)=CC1=O,,32.3 µM,,32.8 µM,,3.35 µM,,37.8 µM,,4.86 µM,,33.1 µM,,69.6 µM,,26.1 µM,,41.5 µM,,22.2 µM
Nc1nnnc2nc[nH]c12,6.42 µM,> 100 µM,0.221 µM,,1.92 µM,> 100 µM,3.79 µM,> 100 µM,2.62 µM,> 100 µM,3.19 µM,40.9 µM,0.742 µM,> 26 µM,2.42 µM,> 100 µM,,> 45.8 µM,0.729 µM,14 µM
CCN(CC)c1ccc2nc3c4ccccc4c(=O)cc-3n(-c3ccccc3)c2c1,1.45 µM,3.96 µM,1.32 µM,4.52 µM,0.273 µM,0.821 µM,0.902 µM,8.42 µM,2.36 µM,7.48 µM,2.18 µM,9.09 µM,2.34 µM,7.86 µM,1.9 µM,7.58 µM,2.05 µM,7.07 µM,1.12 µM,2.9 µM
O=c1ccc(=O)n(-c2ccccc2)[nH]1,,> 100 µM,,> 100 µM,,> 100 µM,,> 100 µM,,> 100 µM,,> 100 µM,,> 100 µM,,> 100 µM,,> 100 µM,,> 100 µM
COc1cccc(C2=C(c3cn(C)c4cc(F)ccc34)C(=O)NC2=O)c1,> 17.4 µM,> 25 µM,> 13.4 µM,> 25 µM,13.6 µM,> 25 µM,8.35 µM,> 25 µM,11.1 µM,> 25 µM,> 25 µM,> 25 µM,18.2 µM,> 25 µM,12.5 µM,> 25 µM,> 25 µM,> 25 µM,> 25 µM,> 25 µM
NC1=NC(=O)/C(=C/c2ccc3ncccc3c2)S1,> 25 µM,> 25 µM,> 25 µM,> 25 µM,> 25 µM,> 25 µM,> 25 µM,> 25 µM,> 25 µM,> 25 µM,> 25 µM,> 25 µM,> 25 µM,> 25 µM,> 25 µM,> 25 µM,> 25 µM,> 25 µM,> 25 µM,> 25 µM
C=C1C(=O)O[C@H]2[C@H]1CC/C(Cn1cc(-c3cccc(Cl)c3)nn1)=C\CC[C@@]1(C)O[C@@H]21,1.79 µM,3.57 µM,0.869 µM,2.13 µM,0.332 µM,1.31 µM,0.51 µM,1.73 µM,0.31 µM,1.25 µM,1.58 µM,3.27 µM,2.39 µM,8.39 µM,1.98 µM,3.77 µM,0.351 µM,1.27 µM,1.42 µM,2.8 µM
CCOC(=O)c1c(NC(=O)c2ccccc2)sc2c3c(ccc12)OCN(C)C3,1.73 µM,3.56 µM,1.59 µM,2.99 µM,1.81 µM,3.88 µM,2 µM,4.25 µM,2.09 µM,5.19 µM,1.78 µM,3.78 µM,1.59 µM,3.32 µM,1.53 µM,3 µM,1.71 µM,3.15 µM,1.97 µM,3.85 µM
COC(=O)C1(C)CC2C(C)(CCC3(C)C4=CC=C5C(=CC(=O)C(O)=C5C)C4(C)CCC23C)CC1O (configuration not stated),,4.94 µM,,2.27 µM,,0.771 µM,,2.53 µM,,0.931 µM,,,,2.93 µM,,3.12 µM,,2.1 µM,,4.28 µM
CCCCCCCCCC(CCCC(O)CC(=O)O)OC1OC(COC2OC(C)C(OC(C)=O)C(O)C2O)C(O)C(O)C1OC1OC(CO)C(O)C(O)C1OC1OC(C)C(OC(=O)CC(C)C)C(O)C1O (configuration not stated),> 35 µM,> 35 µM,> 35 µM,> 35 µM,> 35 µM,> 35 µM,> 35 µM,> 35 µM,> 35 µM,> 35 µM,> 35 µM,> 35 µM,> 35 µM,> 35 µM,> 35 µM,> 35 µM,> 35 µM,> 35 µM,> 35 µM,> 35 µM
O=C1c2ccccc2C(=O)c2c1ccc1c(=O)n(-c3ccccc3C(F)(F)F)nnc21,,,2.77 µM,> 100 µM,1.76 µM,5.48 µM,3.43 µM,> 100 µM,1.53 µM,8.12 µM,1.34 µM,3.51 µM,2.05 µM,9.23 µM,2.2 µM,> 100 µM,5.79 µM,> 100 µM,1.71 µM,3.51 µM
C/C(=N\n1c(O)c(C#N)cc(C#N)c1=O)c1ccncc1,> 100 µM,> 100 µM,> 100 µM,> 100 µM,,,> 100 µM,> 100 µM,> 100 µM,> 100 µM,> 100 µM,> 100 µM,> 100 µM,> 100 µM,> 100 µM,> 100 µM,> 100 µM,> 100 µM,> 100 µM,> 100 µM
O=C1C=CC(=Nc2cccc3c(N=C4C=CC(=O)O4)cccc23)O1,,> 100 µM,,35.5 µM,,,,> 100 µM,,19.8 µM,,> 100 µM,,> 100 µM,,> 100 µM,,> 100 µM,,55.6 µM
Cc1ccc(Cl)cc1NC(=O)c1cc2ccccc2cc1O,0.418 µM,> 100 µM,0.219 µM,0.921 µM,0.267 µM,0.768 µM,3.37 µM,14.2 µM,0.558 µM,3.42 µM,0.234 µM,0.707 µM,0.266 µM,1.27 µM,0.289 µM,,,,0.277 µM,0.909 µM
